Data set [1] deals with K562/A02. The data set can be described thus: Effect on P-gp expression in human K562/A02 cells at 0.5 to 8 uM measured after 24 hrs by Western blot analysis. The data set is classed as functional, cell-based. To be noted: dose 0.5-8 µM. Background: A western blot detects proteins with antibodies after separation by electrophoresis.
Data set [2] deals with K562/A02. The data set can be described thus: Reversal fold, ratio of ADR IC50 to test compound IC50 for reversal of multi-drug resistance in human K562/A02 cells at 0.4 uM. Type of data set: functional.
For data set [3], the system named is K562/A02. Nature of the data set: Reversal of multi-drug resistance in human K562/A02 cells increase in intracellular Rh123 level incubated for 30 mins by flow cytometry analysis. The data set is classed as functional, cell-based. To be noted: dose 0.5-8 µM. (In flow cytometry, cells or beads pass a laser one at a time.)
In data set [4] the test system is K562/A02. The data set can be described thus: Reversal of adriamycin resistance in human K562/A02 cells incubated for 48 hrs. To be noted: K562/A02, 48 h. Type of data set: functional, cell-based.
In data set [5] the test system is K562/A02. Nature of the data set: Reversal fold, ratio of ADR IC50 to test compound IC50 for reversal of multi-drug resistance in human K562/A02 cells. Type of data set: functional.
Data set [6] relates to K562/A02. Nature of the data set: Cytotoxicity against human K562/A02 cells assessed as inhibition of cell growth incubated for 72 hrs by CCK-8 assay. The data set is classed as functional, cell-based. To be noted: K562/A02, 72 h. (In general: Formazan colour is commonly taken as a measure of viable cells.)
The next data set has as its target Cytochrome P450 3A4 (Homo sapiens, UniProt P08684). Nature of the data set: Inhibition of CYP3A4 (unknown origin) using luciferin-IPA as substrate preincubated for 1 hr followed by substrate addition and measured after 1 hr by luminometer assay. Type of data set: ADME.
For data set [7], the target named is ATP-dependent translocase ABCB1 (Homo sapiens, UniProt P08183). The data set can be described thus: Binding affinity to p-gp in human K562/A02 cells assessed as increase in thermal stabilization at 50 uM incubated for 1 hr by CETSA analysis. To be noted: k562/a02, 1 h. The data set is classed as cell-based.
ATP-dependent translocase ABCB1, sequence (P08183 whole entry): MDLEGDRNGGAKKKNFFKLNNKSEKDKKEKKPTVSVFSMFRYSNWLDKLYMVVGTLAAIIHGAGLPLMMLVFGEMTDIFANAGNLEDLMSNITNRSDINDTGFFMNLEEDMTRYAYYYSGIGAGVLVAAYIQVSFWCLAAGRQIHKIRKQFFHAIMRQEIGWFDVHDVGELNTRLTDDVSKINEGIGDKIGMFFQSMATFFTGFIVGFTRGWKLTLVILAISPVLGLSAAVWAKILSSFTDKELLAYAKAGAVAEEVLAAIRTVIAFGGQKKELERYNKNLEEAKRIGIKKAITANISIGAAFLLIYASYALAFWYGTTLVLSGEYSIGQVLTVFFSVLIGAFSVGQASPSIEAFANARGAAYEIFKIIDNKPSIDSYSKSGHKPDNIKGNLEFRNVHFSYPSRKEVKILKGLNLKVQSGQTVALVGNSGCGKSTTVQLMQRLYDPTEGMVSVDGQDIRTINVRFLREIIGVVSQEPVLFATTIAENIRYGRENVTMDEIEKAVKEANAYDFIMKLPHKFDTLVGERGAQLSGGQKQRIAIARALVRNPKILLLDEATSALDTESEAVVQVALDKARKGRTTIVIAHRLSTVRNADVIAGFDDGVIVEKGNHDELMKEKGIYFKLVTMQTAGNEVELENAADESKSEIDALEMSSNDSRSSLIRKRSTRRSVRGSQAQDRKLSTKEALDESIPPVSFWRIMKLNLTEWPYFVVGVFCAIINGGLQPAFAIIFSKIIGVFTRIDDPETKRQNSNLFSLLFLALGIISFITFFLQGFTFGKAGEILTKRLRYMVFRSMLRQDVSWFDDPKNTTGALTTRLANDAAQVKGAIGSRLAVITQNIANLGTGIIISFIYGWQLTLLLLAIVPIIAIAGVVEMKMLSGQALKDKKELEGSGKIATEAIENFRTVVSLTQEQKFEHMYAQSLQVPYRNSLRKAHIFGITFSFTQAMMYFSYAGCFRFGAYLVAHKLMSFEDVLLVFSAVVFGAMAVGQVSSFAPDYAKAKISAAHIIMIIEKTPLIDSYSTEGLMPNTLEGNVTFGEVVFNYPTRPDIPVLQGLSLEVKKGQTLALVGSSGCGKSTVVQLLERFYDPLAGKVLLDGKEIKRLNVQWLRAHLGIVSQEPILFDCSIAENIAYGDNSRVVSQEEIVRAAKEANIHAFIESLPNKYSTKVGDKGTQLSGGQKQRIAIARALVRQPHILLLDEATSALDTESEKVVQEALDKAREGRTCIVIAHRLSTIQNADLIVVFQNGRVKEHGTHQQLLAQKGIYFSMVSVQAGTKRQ
Data set [8] concerns K562/A02. Nature of the data set: Antitumor activity against human K562/A02 cells xenografted in BALB/c nude mouse assessed as reduction in tumor volume at 20 mg/kg, ip measured upto 14 days by vernier caliper analysis. The data set is classed as functional. To be noted: time <= 14 day.
In data set [9] the test system is K562/A02. Nature of the data set: Antitumor activity against human K562/A02 cells xenografted in BALB/c nude mouse assessed as reduction in tumor weight at 20 mg/kg, ip measured upto 14 days in presence of ADR by vernier caliper analysis. Type of data set: functional, organism-based. To be noted: time <= 14.0 day.
The test system of data set [10] is K562. Nature of the data set: Reversal of multi-drug resistance in human K562 cells increase in intracellular Rh123 level at 0.5 to 8 uM incubated for 30 mins by flow cytometry analysis. The data set is classed as functional, cell-based. To be noted: dose 0.5-8 µM.
Data set [11] has as its system K562/A02. Nature of the data set: Antitumor activity against human K562/A02 cells xenografted in BALB/c nude mouse assessed as reduction in tumor volume at 20 mg/kg, ip measured upto 14 days in presence of ADR by vernier caliper analysis. To be noted: time <= 14 day. Type of data set: functional.
For data set [12], the system named is K562/A02. Nature of the data set: Antitumor activity against human K562/A02 cells xenografted in BALB/c nude mouse assessed as reduction in tumor volume at 2 mg/kg, ip measured upto 14 days by vernier caliper analysis. Type of data set: functional. To be noted: time <= 14 day.
The subject of data set [13] is K562. Nature of the data set: cells. To be noted: Homo sapiens, K562, 72 h.
Description: Cytotoxicity against human K562 cells assessed as inhibition of cell growth incubated for 72 hrs by CCK-8 assay

Structures are written as SMILES. Calls of active or inactive are those of the source. No cut-off for these calls is given here.

Cytochrome P450 3A4, sequence (P08684 whole entry): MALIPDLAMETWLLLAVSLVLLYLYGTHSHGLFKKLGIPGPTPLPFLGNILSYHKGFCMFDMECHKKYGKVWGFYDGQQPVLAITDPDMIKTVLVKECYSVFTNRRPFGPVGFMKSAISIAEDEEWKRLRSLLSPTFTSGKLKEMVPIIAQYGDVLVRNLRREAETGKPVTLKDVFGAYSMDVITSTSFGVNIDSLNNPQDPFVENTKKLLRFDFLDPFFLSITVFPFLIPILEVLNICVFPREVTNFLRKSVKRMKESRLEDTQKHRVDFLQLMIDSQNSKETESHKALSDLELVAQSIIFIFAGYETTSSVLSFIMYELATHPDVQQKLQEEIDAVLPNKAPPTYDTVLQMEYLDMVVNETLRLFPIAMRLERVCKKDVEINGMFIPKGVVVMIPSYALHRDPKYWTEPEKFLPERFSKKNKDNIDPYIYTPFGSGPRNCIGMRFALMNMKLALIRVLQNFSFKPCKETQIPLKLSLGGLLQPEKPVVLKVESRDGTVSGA

With `COc1cc2c(cc1OC)CN(CCc1ccc(N3Cc4cc(OC)c5c(c4-c4c(cc(OC)c6c4OCO6)C3)OCO5)cc1)CC2`, the result with K562/A02 [1] was inactive. Further, the “Ratio IC50” value in the data set with K562/A02 [2] and in the data set with K562/A02 [5] was 93.17 throughout. The Activity entry is “Dose-Dependent Effect” with K562/A02 [3], “Active” in data set [7], 525.75 mm3 in the data set on K562/A02 [8] and 158.27 mm3 in the data set with K562/A02 [11]. Also, the concentration for a half-maximal effect (EC50) (as a rule, the concentration that produces a half-maximal response) in the data set with K562/A02 [4] was found to be 48.7 nM. Moreover, the IC50 (usually the point on the concentration scale where inhibition reaches its midpoint) was found to be 95.4 µM in the data set on K562/A02 [6] and 2610 nM on Cytochrome P450 3A4. In addition, the result in the data set on K562/A02 [9] and in the data set on K562 [10] was Active.
Regarding `COc1cc2c(c3c1OCO3)-c1c(cc(OC)c3c1OCO3)CN(c1ccc(CCN3CCOCC3)cc1)C2`, in the data set with K562/A02 [5], the “Ratio IC50” value turned out to be 16.7. In addition, in the data set on K562/A02 [6], the IC50 worked out at 6.57 µM.
Taken in the same sequence, the figures for `COc1cc2c(cc1OC)CN(CCN1Cc3cc(OC)c4c(c3-c3c(cc(OC)c5c3OCO5)C1)OCO4)CC2` were 4.29 and 7.78 µM.
Consider `COc1ccc2c(c1)CCN(CCN1Cc3cc(OC)c4c(c3-c3c(cc(OC)c5c3OCO5)C1)OCO4)C2`, for which the “Ratio IC50” value in the data set with K562/A02 [2] stood at 4.87. Further, in the data set on K562/A02 [6], the IC50 worked out at 5.1 µM.
Taken in the same sequence, the figures for `COc1cc2c(c3c1OCO3)-c1c(cc(OC)c3c1OCO3)CN(c1ccc(CCN3CCCCC3)cc1)C2` were 12.52 and 3.21 µM.
Take `COc1ccc2c(c1)CCN(CCc1ccc(N3Cc4cc(OC)c5c(c4-c4c(cc(OC)c6c4OCO6)C3)OCO5)cc1)C2`: in the data set on K562/A02 [5], the “Ratio IC50” value is on record as 8.61. For the same compound, the IC50 in the data set on K562/A02 [6] was greater than 100 µM.
Regarding `COc1cccc2c1C(=O)c1c(O)c3c(c(O)c1C2=O)C[C@@](O)(C(=O)CO)C[C@@H]3O[C@H]1C[C@H](N)[C@H](O)[C@H](C)O1.Cl` [DOXORUBICIN HYDROCHLORIDE], the IC50 with K562/A02 [6] is 2.4 µM; with K562 [13] it was 1 nM. In addition, in the data set with K562/A02 [12], the Activity was 526.45 mm3.
As to `COc1cc2c(cc1OC)CN(CCc1ccccc1N1Cc3cc(OC)c4c(c3-c3c(cc(OC)c5c3OCO5)C1)OCO4)CC2`, the “Ratio IC50” value in the data set on K562/A02 [5] is reported as 0.85. In addition, the IC50 in the data set on K562/A02 [6] was greater than 100 µM.
For the compound `COc1cc2c(c3c1OCO3)-c1c(cc(OC)c3c1OCO3)CN(CCc1ccc3c(c1)OCO3)C2`, the “Ratio IC50” value is 12.78 in the data set on K562/A02 [2] and 20.58 in the data set with K562/A02 [5]. Moreover, the EC50 with K562/A02 [4] worked out at 122 nM.
For `COc1cc2c(cc1OC)CN(Cc1ccc(N3Cc4cc(OC)c5c(c4-c4c(cc(OC)c6c4OCO6)C3)OCO5)cc1)CC2`, the “Ratio IC50” value with K562/A02 [2] stood at 46.82; in the data set with K562/A02 [5], 374.09. For the same compound, in the data set with K562/A02 [6], the IC50 was determined as 13.6 µM.
On to `COc1ccc2c(c1)CCN(CCCCCCN1Cc3cc(OC)c4c(c3-c3c(cc(OC)c5c3OCO5)C1)OCO4)C2`, for which, in the data set on K562/A02 [5], the “Ratio IC50” value is 4.23. The IC50 in the data set on K562/A02 [6] is greater than 100 µM.
Turning to `COc1cc2c(c3c1OCO3)-c1c(cc(OC)c3c1OCO3)CN(c1ccc(CN3CCCCC3)cc1)C2`, the “Ratio IC50” value in the data set on K562/A02 [2] is on record as 21.82; in the data set with K562/A02 [5], 113.14. The IC50 in the data set with K562/A02 [6] turned out to be 19.3 µM.
`COc1cc2c(cc1OC)CN(CCCCCCN1Cc3cc(OC)c4c(c3-c3c(cc(OC)c5c3OCO5)C1)OCO4)CC2`: the “Ratio IC50” value in the data set on K562/A02 [2] came out at 8.24. In addition, the IC50 in the data set on K562/A02 [6] was determined as 2.04 µM.
Taken in the same sequence, the figures for `COc1cc2c(c3c1OCO3)-c1c(cc(OC)c3c1OCO3)CN(c1ccc(CCN3CCNCC3)cc1)C2` were 14.23 and 4.63 µM.
On the same counts, the results for `COc1ccc2c(c1)CCN(CCCN1Cc3cc(OC)c4c(c3-c3c(cc(OC)c5c3OCO5)C1)OCO4)C2` are 1.67 and 5.31 µM.
As to `COc1cc2c(cc1OC)CN(CCCN1Cc3cc(OC)c4c(c3-c3c(cc(OC)c5c3OCO5)C1)OCO4)CC2`, the “Ratio IC50” value with K562/A02 [5] was determined as 2.01. For the same compound, the IC50 in the data set with K562/A02 [6] stood at 16.6 µM.
With `COc1ccc(C(=O)Nc2ccccc2C(=O)Nc2ccc(CCN3CCc4cc(OC)c(OC)cc4C3)cc2)cc1OC`, the EC50 in the data set with K562/A02 [4] came to 30.3 nM. Further, the “Ratio IC50” value in the data set with K562/A02 [5] was found to be 81.9. The IC50 in the data set with K562/A02 [6] is 9.08 µM.

These data come from ChEMBL document CHEMBL5346887, “Design and evaluation of dibenzoazepine-tetrahydroisoquinoline hybrids as potential P-glycoprotein inhibitors against multidrug resistant K562/A02 cells” (Eur J Med Chem, 2023).
